Laboratory results reported in patent US20240083892A1 (BISICHEM CO., LTD., priority 2021, published 2024).

Experiments:
[1] = target: T1, RIPK1 (Homo sapiens, UniProt Q13546); test: Immunoblotting of TNFα induced phospho-RIPK1 (ser 166) levels; format: cell-based; settings: HMC3 cells; Z-VAD-FMK, human TNFα 20 ng/ml, SM-164 100 nM; 7 h, serum free media; read-out: Cell-base RIPK1 activity: phspho-RIPK1 (Ser166)
T1 construct: endogenous in cells; host or cells: HT-29 (KCLB 30038)
T1 sequence (Q13546 1-671): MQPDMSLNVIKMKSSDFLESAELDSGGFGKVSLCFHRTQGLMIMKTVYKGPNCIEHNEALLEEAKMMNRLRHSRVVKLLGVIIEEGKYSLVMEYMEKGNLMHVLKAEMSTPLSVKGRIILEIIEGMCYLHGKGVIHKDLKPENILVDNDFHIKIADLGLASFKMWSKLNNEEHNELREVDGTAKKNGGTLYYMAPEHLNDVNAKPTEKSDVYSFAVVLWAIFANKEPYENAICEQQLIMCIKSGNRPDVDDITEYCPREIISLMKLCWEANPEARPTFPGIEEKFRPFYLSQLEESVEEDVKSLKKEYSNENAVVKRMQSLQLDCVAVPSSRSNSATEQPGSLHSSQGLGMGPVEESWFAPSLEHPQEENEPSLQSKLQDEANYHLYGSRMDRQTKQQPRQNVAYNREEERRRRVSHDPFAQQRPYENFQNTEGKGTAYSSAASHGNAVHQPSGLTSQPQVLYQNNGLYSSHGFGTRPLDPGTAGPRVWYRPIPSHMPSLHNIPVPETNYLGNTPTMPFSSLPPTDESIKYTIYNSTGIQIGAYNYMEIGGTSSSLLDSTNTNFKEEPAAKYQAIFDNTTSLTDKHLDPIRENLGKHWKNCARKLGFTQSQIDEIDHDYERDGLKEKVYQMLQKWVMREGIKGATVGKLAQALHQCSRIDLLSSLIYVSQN
Procedure: (§1) Human colon carcinoma cell HT-29 (KCLB 30038), BV2 mouse microglial cell (cell was a kind gift from Dr. Nak-Yun Sung, Senior researcher at Korea Prime Pharmacy CO., LTD.) and human microglial cell HMC3 (ATCC® CRL-3304™). HT-29 cell was grown in Roswell Park Memorial Institute (RPMI) 1640, BV2 cell was grown in Dulbecco's Modified Eagle's Medium (DMEM) and HMC3 cell was grown in Minimum Essential Media Eagle (MEM) supplemented with 10% fetal bovine serum and 1% mixture of penicillin and streptomycin (Gibco). Cells were maintained at 37° C. in a humidified 5% CO2 atmosphere.
Biological activity of the compounds of RIPK1 inhibitor was determined by measuring their ability to inhibitor TNFα induced phospho-RIPK1 (ser 166) levels, phospho-RIPK3 levels, phospho-MLKL levels in HMC3 cells. Cells were pretreated with Z-VAD-FMK […]. After 30 min, human TNFα 20 ng/ml, SM-164 100 nM and RIPK1 inhibitor (0.1, 1, 10 nM) were treated for 7 h under serum free media. Cells were lysed with cold lysis buffer containing 25 mM HEPES pH 7.6, […] NaCl, 1% NP40, 1% sodium deoxycholate, 0.1% SDS, and protease inhibitor mixture (Bimake, Houston, USA) using sonicators. The cells were centrifuged at 15,000 rpm, 4° C. for 5 min. After protein concentration of the lysates (supernatants) was quantified using BCA assay (Thermo Fisher Scientific, Waltham, USA), lysates were mixed with LDS sample buffer and heating at […] for 10 min. (Invitrogen, California, USA). […] The membranes are placed in an image analyzer (Imagequant, LAS 500, GE Healthcare), connected to a computer which allows the image generation (software Image reader LAS 500).

[2] = target: T1, RIPK1; test: Cell-based necroptosis assay for RIPK1 activity (cell viability by CCK-8); settings: HT-29 cells; Z-VAD-FMK 20 μM, human TNFα 10 ng/ml, SM-164 100 nM; 24 h; read-out: Cell-base RIPK1 activity: Necroptosis
Procedure: as §1
To measure the activity of RIPK1 inhibitor in necroptotic cells, HT-29 cells were treated by control DMSO, human TNFα (Peprotech, Rocky Hill, USA), SM-164 (Biovision, California, USA) and a pan-caspase inhibitor Z-VAD-FMK (Invivogen, San Diego, USA). Cells were pretreated with Z-VAD-FMK 20 μM. After 30 min, human TNFα 10 ng/ml, SM-164 100 nM and RIPK1 Inhibitor (0.0001, 0.001, 0.01, 0.02, 0.05, 0.1, 1, 10 uM) were treated for 24 h. Cell viability was measured by Cell Counting Kit 8 (CCK-8) (Dong-in, Seoul, Korea).

Row | IC50 [1] [nM] | SMILES | IC50 [2] [nM]
1 | < 10 | CCN(CC(C)(C)O)C(=O)COc1ccc2c(c1)N(C)C(=O)[C@@H](NC(=O)n1cc(Cc3cccc(F)c3)cn1)CO2 [Example 53, (S)—N-(7-(2-(ethyl(2-hydroxy-2-methylpropyl)amino)-2-oxoethoxy)-5-methyl-4-oxo-2,3,4,5-tetrahydrobenzo[b][1,4]oxazepin-3-yl)-4-(3-fluorobenzyl)-1H-pyrazole-1-carboxamide] | < 10
2 | < 10 | CN1C(=O)[C@@H](NC(=O)n2cc(Cc3cccc(F)c3)cn2)COc2ccc(OCC(=O)N3CCC(C)(C)CC3)cc21 [Example 37, (S)—N-(7-(2-(4,4-dimethylpiperidin-1-yl)-2-oxoethoxy)-5-methyl-4-oxo-2,3,4,5-tetrahydrobenzo[b][1,4]oxazepin-3-yl)-4-(3-fluorobenzyl)-1H-pyrazole-1-carboxamide] | < 10
3 | < 10 | Cc1noc(C)c1COc1ccc2c(c1)N(C)C(=O)[C@@H](NC(=O)n1cc(Cc3cccc(F)c3)cn1)CO2 [Example 67, (S)—N-(7-((3,5-dimethylisoxazol-4-yl)methoxy)-5-methyl-4-oxo-2,3,4,5-tetrahydrobenzo[b][1,4]oxazepin-3-yl)-4-(3-fluorobenzyl)-1H-pyrazole-1-carboxamide] | < 10
4 | < 10 | CN1C(=O)[C@@H](NC(=O)n2cc(Cc3cccc(F)c3)cn2)COc2ccc(OCCCC3CCCCC3)cc21 [Example 16, (S)—N-(7-(3-cyclohexylpropoxy)-5-methyl-4-oxo-2,3,4,5-tetrahydrobenzo[b][1,4]oxazepin-3-yl)-4-(3-fluorobenzyl)-1H-pyrazole-1-carboxamide] | < 10
5 | < 10 | CN1C(=O)[C@@H](NC(=O)n2cc(Cc3cccc(F)c3)cn2)COc2ccc(OCCCC3(O)CCCCC3)cc21 [Example 27, (S)-4-(3-fluorobenzyl)-N-(7-(3-(1-hydroxycyclohexyl)propoxy)-5-methyl-4-oxo-2,3,4,5-tetrahydrobenzo[b][1,4]oxazepin-3-yl)-1H-pyrazole-1-carboxamide] | < 10
6 | < 10 | CN1C(=O)[C@@H](NC(=O)n2cc(Cc3cccc(F)c3)cn2)COc2ccc(O[C@H]3CC[C@H](O)CC3)cc21 [Example 35, 4-(3-fluorobenzyl)-N—((S)-7-(((1r,4S)-4-hydroxycyclohexyl)oxy)-5-methyl-4-oxo-2,3,4,5-tetrahydrobenzo[b][1,4]oxazepin-3-yl)-1H-pyrazole-1-carboxamide] | < 10
7 | < 10 | COc1cc(COc2ccc3c(c2)N(C)C(=O)[C@@H](NC(=O)n2cc(Cc4cccc(F)c4)cn2)CO3)ccn1 [Example 61, (S)-4-(3-fluorobenzyl)-N-(7-((2-methoxypyridin-4-yl)methoxy)-5-methyl-4-oxo-2,3,4,5-tetrahydrobenzo[b][1,4]oxazepin-3-yl)-1H-pyrazole-1-carboxamide] | < 10
8 | < 10 | CN1C(=O)[C@@H](NC(=O)n2cc(Cc3cccc(F)c3)cn2)COc2ccc(OCc3cn(CC(C)(C)O)nn3)cc21 [Example 68, (S)-4-(3-fluorobenzyl)-N-(7-((1-(2-hydroxy-2-methylpropyl)-1H-1,2,3-triazol-4-yl)methoxy)-5-methyl-4-oxo-2,3,4,5-tetrahydrobenzo[b][1,4]oxazepin-3-yl)-1H-pyrazole-1-carboxamide] | < 10
9 | < 10 | CN1C(=O)[C@@H](NC(=O)n2cc(Cc3cccc(F)c3)cn2)COc2ccc(OCc3ccc(F)nc3)cc21 [Example 59, (S)-4-(3-fluorobenzyl)-N-(7-((6-fluoropyridin-3-yl)methoxy)-5-methyl-4-oxo-2,3,4,5-tetrahydrobenzo[b][1,4]oxazepin-3-yl)-1H-pyrazole-1-carboxamide] | < 10
10 | < 10 | CN1C(=O)[C@@H](NC(=O)n2cc(Cc3cccc(F)c3)cn2)COc2ccc(OCC(=O)N3CC[C@H](O)C3)cc21 [Example 46, 4-(3-fluorobenzyl)-N—((S)-7-(2-((S)-3-hydroxypyrrolidin-1-yl)-2-oxoethoxy)-5-methyl-4-oxo-2,3,4,5-tetrahydrobenzo[b][1,4]oxazepin-3-yl)-1H-pyrazole-1-carboxamide] | 10 to 50
11 | < 10 | CN1C(=O)[C@@H](NC(=O)n2cc(Cc3cccc(F)c3)cn2)COc2ccc(OCC(O)c3ccncc3)cc21 (stereo partly drawn) [Example 71, 4-(3-fluorobenzyl)-N-((3S)-7-(2-hydroxy-2-(pyridin-4-yl)ethoxy)-5-methyl-4-oxo-2,3,4,5-tetrahydrobenzo[b][1,4]oxazepin-3-yl)-1H-pyrazole-1-carboxamide] | < 10
12 | < 10 | CN1C(=O)[C@@H](NC(=O)n2cc(Cc3cccc(F)c3)cn2)COc2ccc(OCC(=O)N3CC(C)(O)C3)cc21 [Example 49, (S)-4-(3-fluorobenzyl)-N-(7-(2-(3-hydroxy-3-methylazetidin-1-yl)-2-oxoethoxy)-5-methyl-4-oxo-2,3,4,5-tetrahydrobenzo[b][1,4]oxazepin-3-yl)-1H-pyrazole-1-carboxamide] | < 10
13 | < 10 | CN1C(=O)[C@@H](NC(=O)n2cc(Cc3cccc(F)c3)cn2)COc2ccc(OCCCc3cccnc3)cc21 [Example 29, (S)-4-(3-fluorobenzyl)-N-(5-methyl-4-oxo-7-(3-(pyridin-3-yl)propoxy)-2,3,4,5-tetrahydrobenzo[b][1,4]oxazepin-3-yl)-1H-pyrazole-1-carboxamide] | < 10
14 | 10 to 50 | CN1C(=O)[C@@H](NC(=O)n2cc(Cc3cccc(F)c3)cn2)COc2ccc(C(=O)N3CCCCC3)cc21 [Example 1, (S)-4-(3-fluorobenzyl)-N-(5-methyl-4-oxo-7-(piperidine-1-carbonyl)-2,3,4,5-tetrahydrobenzo[b][1,4]oxazepin-3-yl)-1H-pyrazole-1-carboxamide] | 10 to 50
15 | < 10 | CN1C(=O)[C@@H](NC(=O)n2cc(Cc3cccc(F)c3)cn2)COc2ccc(OCc3ccnc(F)c3)cc21 [Example 60, (S)-4-(3-fluorobenzyl)-N-(7-((2-fluoropyridin-4-yl)methoxy)-5-methyl-4-oxo-2,3,4,5-tetrahydrobenzo[b][1,4]oxazepin-3-yl)-1H-pyrazole-1-carboxamide] | < 10
16 | < 10 | CN1C(=O)[C@@H](NC(=O)n2cc(Cc3cccc(F)c3)cn2)COc2ccc(O[C@H]3CC[C@@H](O)CC3)cc21 [Example 34, 4-(3-fluorobenzyl)-N—((S)-7-(((1s,4R)-4-hydroxycyclohexyl)oxy)-5-methyl-4-oxo-2,3,4,5-tetrahydrobenzo[b][1,4]oxazepin-3-yl)-1H-pyrazole-1-carboxamide] | < 10

Row | SMILES | IC50 [1] [nM] | IC50 [2] [nM]
17 | CN1C(=O)[C@@H](NC(=O)n2cc(Cc3cccc(F)c3)cn2)COc2ccc(OCCC(C)(C)O)cc21 [Example 21, (S)-4-(3-fluorobenzyl)-N-(7-(3-hydroxy-3-methylbutoxy)-5-methyl-4-oxo-2,3,4,5-tetrahydrobenzo[b][1,4]oxazepin-3-yl)-1H-pyrazole-1-carboxamide] | < 10 | < 10
